Assays:
[1] = target: T1, c-Abl (His-cAbl) (Homo sapiens, UniProt P00519); test: in vitro enzyme assay, wild-type Abl catalysed phosphorylation; assay type: biochemical; conditions: 16 nM His-cAbl, 10 μM ATP, 1 hour at 30° C.; read-out: IC50, inhibition of wild-type Abl catalysed phosphorylation
T1 construct: The His-tagged kinase domain of Abl is cloned and expressed; His tag; made in house; host or cells: baculovirus/Sf9
T1 sequence (P00519 242-493 limits assumed): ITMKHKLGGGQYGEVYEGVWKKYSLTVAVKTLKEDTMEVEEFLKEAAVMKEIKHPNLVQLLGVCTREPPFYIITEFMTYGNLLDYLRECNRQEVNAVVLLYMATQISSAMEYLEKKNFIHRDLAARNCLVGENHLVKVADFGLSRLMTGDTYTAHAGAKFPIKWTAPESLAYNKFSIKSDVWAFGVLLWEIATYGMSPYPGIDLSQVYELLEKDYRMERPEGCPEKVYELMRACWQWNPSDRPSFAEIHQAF
Experimental: Test for activity against wild-type and mutant Abl protein tyrosine kinase:
The test, an in vitro enzyme assay, is conducted as a filter binding assay as follows: The His-tagged kinase domain of Abl is cloned and expressed in the baculovirus/Sf9 system as described by Bhat et al., J. Biol. Chem. 1997; 272:16170-16175. A protein of 37 kD (Abl kinase) is purified by a two-step procedure over a Cobalt metal chelate column followed by an anion exchange column with a yield of 1-2 mg/L of Sf9 cells. The purity of the Abl kinase is >90% as judged by SDS-PAGE after Coomassie blue staining.
Based on the optimized assay conditions for the individual kinases a specific assay set-up was chosen. The assays were prepared and incubated on a liquid handling robot system using 384-well plates. To the assay plates containing 50 nL compound or control solutions, 4.5 μL of solution A consisting of the peptide substrate and ATP in assay buffer were added. The reactions were initiated by adding 4.5 μL of solution B consisting of the respective kinase in assay buffer. The reactions were incubated for 1 hour at 30° C. in a final reaction volume of 9.05 μL. Based on a generic assay buffer (50 mM HEPES pH7.5, 1 mM DTT, 0.02% Tween20, 0.02% BSA), following components were added depending on the chosen kinase: • c-Abl: 16 nM His-cAbl, 5 μM peptide substrate (FITC-Ahx-EAIYAAPFAKKK-CONH2), 10 mM MgCl2, 10 μM ATP • c-Abl-T315I: 2.4 nM His-cAbl-T315I, 5 μM peptide substrate (FITC-Ahx-EAIYAAPFAKKK-CONH2), 10 mM MgCl2, 10 μM ATP
After incubation, the kinase reactions were stopped by the addition of 16 μL of stop solution (100 mM HEPES, 5% DMSO, 0.1% Coating reagent, 10 mM EDTA, 0.015% Brij 35). Subsequently, the assay plates were transferred to a Caliper LabChip3000 reader and the unphosphorylated substrate and the phosphorylated product were separated and quantitated in a microfluidic chip.

[2] = target: Bcr-Abl (Homo sapiens, UniProt P00519); test: Bcr-Abl phosphorylation capture ELISA in 32D-Bcr-Abl cells; assay type: cell-based, murine; conditions: 90 min at 37° C., read-out: IC50, reduction of Bcr-Abl phosphorylation
Bcr-Abl, sequence (P00519 with tags, fused parts or gaps): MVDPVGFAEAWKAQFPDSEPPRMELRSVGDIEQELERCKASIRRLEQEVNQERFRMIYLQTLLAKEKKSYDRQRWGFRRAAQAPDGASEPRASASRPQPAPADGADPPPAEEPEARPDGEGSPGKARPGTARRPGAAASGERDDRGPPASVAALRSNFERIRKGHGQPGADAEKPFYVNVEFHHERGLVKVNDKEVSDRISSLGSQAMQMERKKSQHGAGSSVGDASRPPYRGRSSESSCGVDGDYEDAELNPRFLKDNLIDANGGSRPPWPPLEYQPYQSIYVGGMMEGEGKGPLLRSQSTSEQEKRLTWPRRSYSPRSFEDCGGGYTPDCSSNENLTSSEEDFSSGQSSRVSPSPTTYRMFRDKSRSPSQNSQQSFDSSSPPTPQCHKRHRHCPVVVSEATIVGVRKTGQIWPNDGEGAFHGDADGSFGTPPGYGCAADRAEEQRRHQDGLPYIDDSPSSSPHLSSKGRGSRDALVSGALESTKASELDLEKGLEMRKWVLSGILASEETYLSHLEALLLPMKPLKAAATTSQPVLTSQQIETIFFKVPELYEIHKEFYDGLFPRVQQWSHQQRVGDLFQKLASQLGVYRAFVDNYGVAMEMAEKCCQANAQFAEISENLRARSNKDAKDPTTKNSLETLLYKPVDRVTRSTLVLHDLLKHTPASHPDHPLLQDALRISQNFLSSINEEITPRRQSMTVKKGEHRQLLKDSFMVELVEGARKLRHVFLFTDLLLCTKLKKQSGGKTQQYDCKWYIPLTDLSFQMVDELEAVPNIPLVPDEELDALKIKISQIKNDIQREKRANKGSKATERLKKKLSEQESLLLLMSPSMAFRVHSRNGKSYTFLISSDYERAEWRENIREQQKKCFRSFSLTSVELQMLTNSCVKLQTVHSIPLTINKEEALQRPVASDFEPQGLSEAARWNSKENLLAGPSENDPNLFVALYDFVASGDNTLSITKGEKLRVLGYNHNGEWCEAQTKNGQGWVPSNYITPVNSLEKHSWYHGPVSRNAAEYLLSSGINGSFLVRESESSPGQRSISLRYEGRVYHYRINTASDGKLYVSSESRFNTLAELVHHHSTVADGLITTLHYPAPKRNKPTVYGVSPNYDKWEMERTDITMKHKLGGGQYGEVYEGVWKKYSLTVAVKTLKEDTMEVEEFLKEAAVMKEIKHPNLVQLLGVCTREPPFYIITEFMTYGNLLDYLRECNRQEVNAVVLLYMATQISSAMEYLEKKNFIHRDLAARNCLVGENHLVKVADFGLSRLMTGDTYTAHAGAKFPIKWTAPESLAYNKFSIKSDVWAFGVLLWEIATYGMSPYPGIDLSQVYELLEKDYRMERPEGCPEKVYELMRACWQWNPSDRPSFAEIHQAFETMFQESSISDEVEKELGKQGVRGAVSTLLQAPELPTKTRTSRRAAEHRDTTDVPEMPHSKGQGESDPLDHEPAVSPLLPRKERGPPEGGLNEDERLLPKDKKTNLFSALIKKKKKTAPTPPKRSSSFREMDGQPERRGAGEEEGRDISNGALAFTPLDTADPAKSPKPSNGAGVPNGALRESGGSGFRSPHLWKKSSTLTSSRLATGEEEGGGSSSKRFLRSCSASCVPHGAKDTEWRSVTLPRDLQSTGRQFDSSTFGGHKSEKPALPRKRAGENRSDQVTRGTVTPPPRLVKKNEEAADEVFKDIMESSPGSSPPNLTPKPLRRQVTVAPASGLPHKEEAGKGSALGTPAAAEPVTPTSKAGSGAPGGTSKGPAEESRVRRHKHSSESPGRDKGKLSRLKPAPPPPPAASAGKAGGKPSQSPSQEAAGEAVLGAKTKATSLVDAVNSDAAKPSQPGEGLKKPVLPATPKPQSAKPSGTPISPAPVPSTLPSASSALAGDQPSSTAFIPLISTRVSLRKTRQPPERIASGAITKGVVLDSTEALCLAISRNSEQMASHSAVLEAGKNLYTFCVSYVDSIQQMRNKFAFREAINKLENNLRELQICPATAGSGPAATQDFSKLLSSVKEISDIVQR
Text: 32D cl3 cells are obtained from the American Type Culture Collection (ATCC CRL11346) and Ba/F3 cells are obtained from the German Collection of Microorganisms and Cell Cultures (DSMZ, Braunschweig and DSMZ No. ACC 300) Palacios et al., Nature, 1984; 309:126 and Palacios et al., Cell, 1985:41:72.
Oncogene 1996; 12: 839-46; and Okuda K, Golub T R, Gilliland D G, Griffin J D. p210BCR-ABL, p190BCR-ABL, and TEL/ABL activate similar signal transduction pathways in hematopoietic cell lines. Oncogene 1996; 13:1147-52.)
The cells express the fusion Bcr-Abl protein with a constitutively active Abl kinase and proliferate growth factor independent. The cells are expanded in RPMI 1640 (AMIMED), 10% fetal calf serum (FCS), 2 mM glutamine (Gibco) (“complete medium”), and a working stock is prepared by freezing aliquots of 2×10^6 cells per vial in freezing medium (95% FCS, 5% DMSO (SIGMA)). After thawing, the cells are used during maximally 10-12 passages for the experiments. The antibody anti-Abl SH3 domain cat. #06-466 from Upstate Biotechnology is used for the ELISA. For detection of Bcr-Abl phosphorylation, the anti-phosphotyrosine antibody Ab PY20, labelled with alkaline phosphatase ([…]) from ZYMED (cat. #03-7722) is used. […]

Q: Which results are given for `O=C(Nc1cc(N2CCNCC2)cc(C(F)(F)F)c1)c1cccc2cc(Oc3ccnc(NC(=O)C4CC4)c3)ccc12` [Example 10, 6-[[2-(Cyclopropanecarbonyl-amino)-pyridin-4-yl]oxy]-naphthalene-1-carboxylic acid (3-piperazin-1-yl-5-trifluoromethyl-phenyl)-amide]?
A: IC50 [1]: < 5 nM; IC50 [2]: 101 to 370 nM

— US8217045B2, “Organic compounds” (Novartis AG, priority 2007, dated 2012)
